We go through 19 compounds from patent publication US11584755B2 (IDEAYA BIOSCIENCES, INC., priority 2017, dated 2023).

Assay type in all cases: biochemical
The target in assay [1] is hXPG (Homo sapiens (Human), UniProt P28715). Put plainly: Enzymatic IC50 assay, FAM-labeled DNA oligomer substrate, fluorescence intensity (XPG). The conditions noted are these: hXPG 100 nM, substrate 100 nM, reaction time 120 minutes, 23° C. As for the experimental part:
FEN1, EXO1 or XPG enzyme was incubated with compound or vehicle (DMSO) and the FAM-labeled DNA oligomer substrate in a microtiter plate. The stop buffer contains EDTA to stop the enzymatic reaction. The plate is read for fluorescence intensity. The high control (DMSO) with high fluorescence intensity represents no inhibition of enzymatic reaction while the low control (10 μM) with low fluorescence intensity represents full inhibition of enzymatic reaction.
• FEN1 • hFEN1: 70 pM • Substrate: 100 nM • Reaction time: 20 minutes • EXO1 • hEXO1: 6 nM, Isoforml • Substrate: 30 nM • Reaction time: 60 minutes • XPG • hXPG: 100 nM • Substrate: 100 nM • Reaction time: 120 minutes
Annealing Buffer: 50 mM Tris-HCl, 50 mM NaCl, 1 mM DTT Assay buffer: 50 mM Tris-HCl pH 8.0, 10 mM MgCl2, 0.01% BSA, 1 mM DTT Stop buffer: 50 mM EDTA in assay buffer Temperature: 23° C. Total volume: 40 μl Controls: • 0% inhibition control: DMSO • 100% inhibition control: 10 μM (final) 5-chloro-3-hydroxy-1,3-dihydroquinazoline-2,4-dione Enzyme Reaction and Detection: • 1. Prepare 25 μM intermediate stock of the substrate by diluting SEQ ID NO:1, SEQ ID NO:2, and SEQ ID NO:3 in annealing buffer, in a PCR tube. • 2. Place the PCR tube on a heat block, heat at 95° C. for 3 minutes, then drop in 0.2° C. increments over 2 minutes, stopping at 25° C. • 3. Remove the tube and let the tube cool at room temperature. • 4. Transfer 10 μL of 3× final concentration test compounds or DMSO to the appropriate wells of a microtiter plate. • 5. Transfer 10 μL of 3× final concentration enzyme in assay buffer or assay buffer alone to the appropriate wells. • 6. Incubate the plate at room temperature for 15 minutes. • 7. Transfer 10 μL of 3× substrate in assay buffer to all the test wells. • 8. Incubate the plate at room temperature for prescribed reaction time. • 9. Centrifuge the plate at 1000 rpm for 1 minute. • 10. Transfer 10 μL of stop buffer to all the test wells. • 11. Centrifuge the plate at 1000 rpm for 1 minute. • 12. Read the plate on a plate reader.

The target of assay [2] is hFEN1 (Homo sapiens (Human), UniProt P39748). Put plainly: Enzymatic IC50 assay, FAM-labeled DNA oligomer substrate, fluorescence intensity (FEN1). The conditions noted are these: hFEN1 70 pM, substrate 100 nM, reaction time 20 minutes, 23° C. Summed up:
(§1)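 FEN1, EXO1 or XPG was preincubated 15 min with compound, then the FAM-labelled DNA oligomer substrate was added in Tris-HCl pH 8.0 with 10 mM MgCl2 at 23° C. FEN1 was 70 pM with 100 nM substrate for 20 min, EXO1 6 nM with 30 nM for 60 min, and XPG 100 nM with 100 nM for 120 min. Reactions were EDTA-stopped and read by fluorescence intensity.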

Assay [3] concerns the target hEXO1, Isoform1 (Homo sapiens (Human), UniProt Q9UQ84). Kind of assay: Enzymatic IC50 assay, FAM-labeled DNA oligomer substrate, fluorescence intensity (EXO1). Conditions: hEXO1 6 nM, substrate 30 nM, reaction time 60 minutes, 23° C. Summed up: as §1

Sequence of hFEN1 (P39748 whole entry): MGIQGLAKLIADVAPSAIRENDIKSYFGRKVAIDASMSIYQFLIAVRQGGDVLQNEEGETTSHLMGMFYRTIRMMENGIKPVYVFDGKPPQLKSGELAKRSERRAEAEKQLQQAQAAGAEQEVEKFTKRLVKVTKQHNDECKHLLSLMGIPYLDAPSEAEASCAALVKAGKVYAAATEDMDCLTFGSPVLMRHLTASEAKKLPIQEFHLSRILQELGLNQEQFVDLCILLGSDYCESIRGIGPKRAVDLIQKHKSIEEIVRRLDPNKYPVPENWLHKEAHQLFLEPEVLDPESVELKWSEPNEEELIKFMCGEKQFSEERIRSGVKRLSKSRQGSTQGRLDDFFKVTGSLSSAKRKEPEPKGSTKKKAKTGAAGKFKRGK
Sequence of hXPG (P28715 whole entry): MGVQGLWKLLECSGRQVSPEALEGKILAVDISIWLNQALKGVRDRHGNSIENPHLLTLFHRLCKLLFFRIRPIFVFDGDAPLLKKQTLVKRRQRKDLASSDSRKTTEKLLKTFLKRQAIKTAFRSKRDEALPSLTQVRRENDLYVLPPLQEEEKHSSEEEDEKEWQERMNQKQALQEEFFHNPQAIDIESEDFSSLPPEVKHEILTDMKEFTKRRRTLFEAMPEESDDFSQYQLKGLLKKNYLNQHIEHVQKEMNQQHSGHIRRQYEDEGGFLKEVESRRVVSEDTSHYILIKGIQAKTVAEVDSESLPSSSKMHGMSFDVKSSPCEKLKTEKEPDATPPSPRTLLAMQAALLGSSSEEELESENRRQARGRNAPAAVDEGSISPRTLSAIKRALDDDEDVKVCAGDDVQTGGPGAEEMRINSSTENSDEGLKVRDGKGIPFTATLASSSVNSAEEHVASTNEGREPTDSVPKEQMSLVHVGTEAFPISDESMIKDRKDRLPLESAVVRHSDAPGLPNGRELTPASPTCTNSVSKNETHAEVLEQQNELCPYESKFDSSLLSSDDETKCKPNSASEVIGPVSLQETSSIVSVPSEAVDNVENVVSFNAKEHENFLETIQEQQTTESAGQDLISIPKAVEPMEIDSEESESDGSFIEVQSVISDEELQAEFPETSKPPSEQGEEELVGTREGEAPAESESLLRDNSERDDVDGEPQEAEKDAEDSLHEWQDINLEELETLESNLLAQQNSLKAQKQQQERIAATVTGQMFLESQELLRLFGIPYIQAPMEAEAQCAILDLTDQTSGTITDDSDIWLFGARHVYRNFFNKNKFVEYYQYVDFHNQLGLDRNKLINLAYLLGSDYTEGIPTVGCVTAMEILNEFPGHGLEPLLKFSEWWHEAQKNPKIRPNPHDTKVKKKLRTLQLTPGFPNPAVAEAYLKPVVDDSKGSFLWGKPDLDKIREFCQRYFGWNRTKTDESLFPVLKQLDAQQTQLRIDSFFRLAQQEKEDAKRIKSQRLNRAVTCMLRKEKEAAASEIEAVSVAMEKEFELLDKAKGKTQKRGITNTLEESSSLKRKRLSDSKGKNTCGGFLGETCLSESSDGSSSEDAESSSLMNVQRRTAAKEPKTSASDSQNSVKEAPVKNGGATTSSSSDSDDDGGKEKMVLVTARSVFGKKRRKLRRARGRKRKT
Sequence of hEXO1, Isoform1 (Q9UQ84 whole entry, canonical isoform): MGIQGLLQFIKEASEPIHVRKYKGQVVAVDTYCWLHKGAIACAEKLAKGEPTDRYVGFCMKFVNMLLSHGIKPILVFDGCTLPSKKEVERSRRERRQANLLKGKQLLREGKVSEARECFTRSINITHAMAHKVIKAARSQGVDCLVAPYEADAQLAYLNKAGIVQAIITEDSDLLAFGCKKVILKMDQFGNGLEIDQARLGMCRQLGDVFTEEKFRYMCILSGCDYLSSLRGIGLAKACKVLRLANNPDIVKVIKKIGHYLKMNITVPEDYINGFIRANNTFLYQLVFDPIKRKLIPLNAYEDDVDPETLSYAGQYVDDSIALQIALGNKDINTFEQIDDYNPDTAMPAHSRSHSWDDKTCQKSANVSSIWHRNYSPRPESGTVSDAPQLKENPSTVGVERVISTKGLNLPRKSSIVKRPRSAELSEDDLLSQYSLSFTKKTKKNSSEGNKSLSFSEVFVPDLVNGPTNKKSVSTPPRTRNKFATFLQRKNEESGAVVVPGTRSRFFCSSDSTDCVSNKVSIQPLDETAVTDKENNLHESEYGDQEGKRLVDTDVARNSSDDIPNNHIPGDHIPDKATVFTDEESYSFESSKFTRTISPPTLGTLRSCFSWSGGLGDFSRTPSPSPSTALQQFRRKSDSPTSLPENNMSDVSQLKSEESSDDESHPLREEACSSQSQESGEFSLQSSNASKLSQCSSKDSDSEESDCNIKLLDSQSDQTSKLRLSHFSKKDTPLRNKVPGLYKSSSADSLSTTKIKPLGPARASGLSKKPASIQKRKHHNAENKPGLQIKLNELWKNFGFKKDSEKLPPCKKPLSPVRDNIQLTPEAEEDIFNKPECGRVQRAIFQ

Regarding `CS(=O)(=O)Nc1cccc(Cn2c(=O)c(O)c(C(=O)O)c3sccc32)c1` [Example 78, 6-hydroxy-4-[3-(methylsulfonamido)benzyl]-5-oxo-4,5-dihydrothieno[3,2-b]pyridine-7-carboxylic acid], the IC50 fell in the range of 2250 to 10000 nM in assay [1], 250 to 750 nM in assay [2] and 750 to 2250 nM in assay [3].
Regarding `O=C(O)c1c(O)c(=O)n(Cc2ccc(Oc3ccccc3)cc2)c2ccsc12` [Example 81, 6-hydroxy-5-oxo-4-(4-phenoxybenzyl)-4,5-dihydrothieno[3,2-b]pyridine-7-carboxylic acid], the IC50 in assay [1] lay within 2250 to 10000 nM; in assay [2], 250 to 750 nM; in assay [3] it was 2250 to 10000 nM.
For `Cc1cc(Cn2c(=O)c(O)c(C(=O)O)c3sccc32)on1` [Example 83, 6-hydroxy-4-[(3-methylisoxazol-5-yl)methyl]-5-oxo-4,5-dihydrothieno[3,2-b]pyridine-7-carboxylic acid], the IC50 in assay [1] was greater than 10000 nM; in assay [2], 250 to 750 nM; in assay [3], greater than 10000 nM.
As to `O=C(O)c1c(O)c(=O)n(Cc2cnn(-c3ccccc3)c2)c2ccsc12` [Example 84, 6-hydroxy-5-oxo-4-[(1-phenyl-1H-pyrazol-4-yl)methyl]-4,5-dihydrothieno[3,2-b]pyridine-7-carboxylic acid], the figures for the 50% inhibitory concentration (IC50) in assay [1], in assay [2] and in assay [3] were 250 to 750 nM, less than 200 nM and 250 to 750 nM, respectively.
As for `O=C(O)c1c(O)c(=O)n(Cc2nnc(-c3ccccc3)o2)c2ccsc12` [Example 85, 6-hydroxy-5-oxo-4-[(5-phenyl-1,3,4-oxadiazol-2-yl)methyl]-4,5-dihydrothieno[3,2-b]pyridine-7-carboxylic acid], the IC50 lay in the range of 750 to 2250 nM in assay [1], 250 to 750 nM in assay [2] and 2250 to 10000 nM in assay [3].
Consider `O=C(O)c1c(O)c(=O)n(Cc2nc(-c3ccccc3)no2)c2ccsc12` [Example 86, 6-hydroxy-5-oxo-4-[(3-phenyl-1,2,4-oxadiazol-5-yl)methyl]-4,5-dihydrothieno[3,2-b]pyridine-7-carboxylic acid], for which the IC50 in assay [1] was in the range of 750 to 2250 nM; in assay [2], 250 to 750 nM; in assay [3], 750 to 2250 nM.
For `O=C(O)c1c(O)c(=O)n(Cc2cnn(-c3cccnc3)c2)c2ccsc12` [Example 87, 6-hydroxy-5-oxo-4-{[1-(pyridin-3-yl)-1H-pyrazol-4-yl]methyl}-4,5-dihydrothieno[3,2-b]pyridine-7-carboxylic acid], the IC50 in assay [1] was 750 to 2250 nM; in assay [2] it was less than 200 nM; in assay [3], 250 to 750 nM.
For `O=C(O)c1c(O)c(=O)n(Cc2noc(-c3ccccc3)n2)c2ccsc12` [Example 88, 6-hydroxy-5-oxo-4-[(5-phenyl-1,2,4-oxadiazol-3-yl)methyl]-4,5-dihydrothieno[3,2-b]pyridine-7-carboxylic acid] the same measures were 2250 to 10000 nM, 750 to 2250 nM and 250 to 750 nM.
For `Cn1cc(Cn2c(=O)c(O)c(C(=O)O)c3sccc32)cn1` [Example 90, 6-hydroxy-4-[(1-methyl-1H-pyrazol-4-yl)methyl]-5-oxo-4,5-dihydrothieno[3,2-b]pyridine-7-carboxylic acid], in that order: 2250 to 10000 nM, less than 200 nM and 2250 to 10000 nM.
For `Cc1ncc(Cn2c(=O)c(O)c(C(=O)O)c3sccc32)s1` [Example 91, 6-hydroxy-4-[(2-methylthiazol-5-yl)methyl]-5-oxo-4,5-dihydrothieno[3,2-b]pyridine-7-carboxylic acid], in that order: 2250 to 10000 nM, less than 200 nM and 2250 to 10000 nM.
In the case of `O=C(O)c1c(O)c(=O)n(Cc2ccc3[nH]cnc3c2)c2ccsc12` [Example 99, 4-[(1H-benzo[d]imidazol-5-yl)methyl]-6-hydroxy-5-oxo-4,5-dihydrothieno[3,2-b]pyridine-7-carboxylic acid], the IC50 in assay [1] is 2250 to 10000 nM; in assay [2], less than 200 nM; in assay [3], 750 to 2250 nM.
For `O=C(O)c1c(O)c(=O)n(Cc2cnc3ccccc3c2)c2ccsc12` [Example 101, 6-hydroxy-5-oxo-4-(quinolin-3-ylmethyl)-4,5-dihydrothieno[3,2-b]pyridine-7-carboxylic acid], in that order: 2250 to 10000 nM, 250 to 750 nM and 250 to 750 nM.
For `N#Cc1ccccc1-n1cc(Cn2c(=O)c(O)c(C(=O)O)c3sccc32)cn1` [Example 111, 4-{[1-(2-cyanophenyl)-1H-pyrazol-4-yl]methyl}-6-hydroxy-5-oxo-4,5-dihydrothieno[3,2-b]pyridine-7-carboxylic acid], in that order: 750 to 2250 nM, 250 to 750 nM and 250 to 750 nM.
For `COc1ccc(-n2cc(Cn3c(=O)c(O)c(C(=O)O)c4sccc43)cn2)cc1` [Example 113, 6-hydroxy-4-{[1-(4-methoxyphenyl)-1H-pyrazol-4-yl]methyl}-5-oxo-4,5-dihydrothieno[3,2-b]pyridine-7-carboxylic acid] the same measures were 750 to 2250 nM, less than 200 nM and 250 to 750 nM.
As to `CS(=O)(=O)c1cccc(-n2cc(Cn3c(=O)c(O)c(C(=O)O)c4sccc43)cn2)c1` [Example 115, 6-hydroxy-4-({1-[3-(methylsulfonyl)phenyl]-1H-pyrazol-4-yl}methyl)-5-oxo-4,5-dihydrothieno[3,2-b]pyridine-7-carboxylic acid], the IC50 in assay [1] was 750 to 2250 nM; in assay [2] it was less than 200 nM; in assay [3] it was less than 200 nM.
As to `CS(=O)(=O)c1ccc(-n2cc(Cn3c(=O)c(O)c(C(=O)O)c4sccc43)cn2)cc1` [Example 116, 6-hydroxy-4-({1-[4-(methylsulfonyl)phenyl]-1H-pyrazol-4-yl}methyl)-5-oxo-4,5-dihydrothieno[3,2-b]pyridine-7-carboxylic acid], the values for the IC50 in assay [1], in assay [2] and in assay [3] were 750 to 2250 nM, less than 200 nM and 250 to 750 nM, respectively.
For `CS(=O)(=O)Nc1ccc(-n2cc(Cn3c(=O)c(O)c(C(=O)O)c4sccc43)cn2)cc1` [Example 117, 6-hydroxy-4-({1-[4-(methylsulfonamido)phenyl]-1H-pyrazol-4-yl}methyl)-5-oxo-4,5-dihydrothieno[3,2-b]pyridine-7-carboxylic acid] the same measures were 250 to 750 nM, less than 200 nM and 250 to 750 nM.
For `O=C(O)c1c(O)c(=O)n(Cc2cnn(Cc3ccccn3)c2)c2ccsc12` [Example 119, 6-hydroxy-5-oxo-4-{[1-(pyridin-2-ylmethyl)-1H-pyrazol-4-yl]methyl}-4,5-dihydrothieno[3,2-b]pyridine-7-carboxylic acid] the same measures were greater than 10000 nM, less than 200 nM and 2250 to 10000 nM.
For `O=C(O)c1c(O)c(=O)n(Cc2cnn(Cc3cccnc3)c2)c2ccsc12` [Example 120, 6-hydroxy-5-oxo-4-{[1-(pyridin-3-ylmethyl)-1H-pyrazol-4-yl]methyl}-4,5-dihydrothieno[3,2-b]pyridine-7-carboxylic acid] the same measures were 2250 to 10000 nM, less than 200 nM and 2250 to 10000 nM.

What is called IC50 is the concentration needed to halve the response being measured. The low end stands for greater potency in that assay, the high end for weaker potency in that assay.
